Assay results reported in PubChem BioAssay (NCI).
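Interpolation was linear, between the two tested concentrations surrounding the appropriate level; five concentrations were tested over 48 hours in 96-well plates. GI50: concentration for 50% inhibition of growth. The concentration for full growth arrest is given as TGI.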

Experiments:
Assay in all cases: NCI tumour cell line growth inhibition, 48 h; in the data active means GI50 below about 0.43 µM; inactive means the rest
786-0 renal = tested on: 786-0 renal
A498 renal = tested on: A498 renal
A549 NSCLC = tested on: A549 NSCLC
ACHN renal = tested on: ACHN renal
BT-549 breast = tested on: BT-549 breast
CAKI-1 renal = tested on: CAKI-1 renal
CCRF-CEM leukemia = tested on: CCRF-CEM leukemia
COLO 205 colon = tested on: COLO 205 colon
DU-145 prostate = tested on: DU-145 prostate
HCC-2998 colon = tested on: HCC-2998 colon
HCT-116 colon = tested on: HCT-116 colon
HCT-15 colon = tested on: HCT-15 colon
HL-60(TB) leukemia = tested on: HL-60(TB) leukemia
HOP-62 NSCLC = tested on: HOP-62 NSCLC
HOP-92 NSCLC = tested on: HOP-92 NSCLC
HS 578T breast = tested on: HS 578T breast
HT29 colon = tested on: HT29 colon
IGROV1 ovarian = tested on: IGROV1 ovarian
K-562 leukemia = tested on: K-562 leukemia
KM12 colon = tested on: KM12 colon
LOX IMVI melanoma = tested on: LOX IMVI melanoma
M14 melanoma = tested on: M14 melanoma
MALME-3M melanoma = tested on: MALME-3M melanoma
MCF7 breast = tested on: MCF7 breast
MDA-MB-231 breast = tested on: MDA-MB-231 breast
MDA-MB-435 = tested on: MDA-MB-435
MOLT-4 leukemia = tested on: MOLT-4 leukemia
NCI-H226 lung = tested on: NCI-H226 lung
NCI-H23 lung = tested on: NCI-H23 lung
NCI-H460 lung = tested on: NCI-H460 lung
NCI-H522 lung = tested on: NCI-H522 lung
NCI/ADR-RES ovarian = tested on: NCI/ADR-RES ovarian
OVCAR-3 ovarian = tested on: OVCAR-3 ovarian
OVCAR-4 ovarian = tested on: OVCAR-4 ovarian
OVCAR-5 ovarian = tested on: OVCAR-5 ovarian
OVCAR-8 ovarian = tested on: OVCAR-8 ovarian
PC-3 prostate = tested on: PC-3 prostate
RPMI-8226 leukemia = tested on: RPMI-8226 leukemia
RXF 393 renal = tested on: RXF 393 renal
SF-268 CNS = tested on: SF-268 CNS
SF-295 CNS = tested on: SF-295 CNS
SF-539 CNS = tested on: SF-539 CNS
SK-MEL-2 melanoma = tested on: SK-MEL-2 melanoma
SK-MEL-28 melanoma = tested on: SK-MEL-28 melanoma
SK-MEL-5 melanoma = tested on: SK-MEL-5 melanoma
SK-OV-3 ovarian = tested on: SK-OV-3 ovarian
SN12C renal = tested on: SN12C renal
SNB-19 CNS = tested on: SNB-19 CNS
SNB-75 CNS = tested on: SNB-75 CNS
SR leukemia = tested on: SR leukemia
SW-620 colon = tested on: SW-620 colon
T-47D breast = tested on: T-47D breast
TK-10 renal = tested on: TK-10 renal
U251 CNS = tested on: U251 CNS
UACC-257 melanoma = tested on: UACC-257 melanoma
UACC-62 melanoma = tested on: UACC-62 melanoma
UO-31 renal = tested on: UO-31 renal

Cn1cc(C2=C(c3c4n(c5ccccc35)CCCC4)C(=O)NC2=O)c2ccccc21
19.3 µM: TGI (SNB-75 CNS)
inactive: GI50 (786-0 renal) > 17.8 µM | GI50 (A498 renal) 5.19 µM | GI50 (A549 NSCLC) 12.5 µM | GI50 (ACHN renal) 20.4 µM | GI50 (BT-549 breast) > 18.5 µM | GI50 (CAKI-1 renal) 8.1 µM | GI50 (CCRF-CEM leukemia) > 15.3 µM | GI50 (COLO 205 colon) 10.7 µM | GI50 (DU-145 prostate) > 15 µM | GI50 (HCC-2998 colon) > 23.8 µM | GI50 (HCT-116 colon) 11.4 µM | GI50 (HCT-15 colon) 11 µM | GI50 (HL-60(TB) leukemia) 9.59 µM | GI50 (HOP-62 NSCLC) > 17.6 µM | GI50 (HOP-92 NSCLC) 8.89 µM | GI50 (HS 578T breast) 5.13 µM | GI50 (HT29 colon) 9.39 µM | GI50 (IGROV1 ovarian) > 8.23 µM | GI50 (K-562 leukemia) 5.32 µM | GI50 (KM12 colon) 9.71 µM | GI50 (LOX IMVI melanoma) 16.6 µM | GI50 (M14 melanoma) 13.4 µM | GI50 (MALME-3M melanoma) > 17.8 µM | GI50 (MCF7 breast) 6.58 µM | GI50 (MDA-MB-231 breast) > 20.2 µM | GI50 (MDA-MB-435) 1.08 µM | GI50 (MOLT-4 leukemia) > 17.2 µM | GI50 (NCI-H226 lung) > 22 µM | GI50 (NCI-H23 lung) > 18.2 µM | GI50 (NCI-H460 lung) 9.9 µM | GI50 (NCI-H522 lung) 4.29 µM | GI50 (NCI/ADR-RES ovarian) 7.81 µM | GI50 (OVCAR-3 ovarian) 6.43 µM | GI50 (OVCAR-4 ovarian) > 16.5 µM | GI50 (OVCAR-5 ovarian) > 25 µM | GI50 (OVCAR-8 ovarian) > 18.4 µM | GI50 (PC-3 prostate) 10.4 µM | GI50 (RPMI-8226 leukemia) > 15.6 µM | GI50 (RXF 393 renal) 5.86 µM | GI50 (SF-268 CNS) 12 µM | GI50 (SF-295 CNS) 7.21 µM | GI50 (SF-539 CNS) 10.5 µM | GI50 (SK-MEL-2 melanoma) 10.1 µM | GI50 (SK-MEL-28 melanoma) > 21.8 µM | GI50 (SK-MEL-5 melanoma) 7.94 µM | GI50 (SK-OV-3 ovarian) > 15.3 µM | GI50 (SN12C renal) 15.1 µM | GI50 (SNB-19 CNS) 20.6 µM | GI50 (SNB-75 CNS) 3.82 µM | GI50 (SR leukemia) 5.92 µM | GI50 (SW-620 colon) 8.74 µM | GI50 (T-47D breast) > 15.5 µM | GI50 (TK-10 renal) > 20.1 µM | GI50 (U251 CNS) 13.2 µM | GI50 (UACC-257 melanoma) > 21.7 µM | GI50 (UACC-62 melanoma) 6.32 µM | GI50 (UO-31 renal) 11.3 µM
> 21.6 µM: TGI (OVCAR-3 ovarian)
> 25 µM: TGI (786-0 renal) | TGI (A498 renal) | TGI (A549 NSCLC) | TGI (ACHN renal) | TGI (BT-549 breast) | TGI (CAKI-1 renal) | TGI (CCRF-CEM leukemia) | TGI (COLO 205 colon) | TGI (DU-145 prostate) | TGI (HCC-2998 colon) | TGI (HCT-116 colon) | TGI (HCT-15 colon) | TGI (HL-60(TB) leukemia) | TGI (HOP-62 NSCLC) | TGI (HOP-92 NSCLC) | TGI (HS 578T breast) | TGI (HT29 colon) | TGI (IGROV1 ovarian) | TGI (K-562 leukemia) | TGI (KM12 colon) | TGI (LOX IMVI melanoma) | TGI (M14 melanoma) | TGI (MALME-3M melanoma) | TGI (MCF7 breast) | TGI (MDA-MB-231 breast) | TGI (MOLT-4 leukemia) | TGI (NCI-H226 lung) | TGI (NCI-H23 lung) | TGI (NCI-H460 lung) | TGI (NCI/ADR-RES ovarian) | TGI (OVCAR-4 ovarian) | TGI (OVCAR-5 ovarian) | TGI (OVCAR-8 ovarian) | TGI (PC-3 prostate) | TGI (RPMI-8226 leukemia) | TGI (SF-268 CNS) | TGI (SF-295 CNS) | TGI (SF-539 CNS) | TGI (SK-MEL-2 melanoma) | TGI (SK-MEL-28 melanoma) | TGI (SK-MEL-5 melanoma) | TGI (SK-OV-3 ovarian) | TGI (SN12C renal) | TGI (SNB-19 CNS) | TGI (SR leukemia) | TGI (SW-620 colon) | TGI (T-47D breast) | TGI (TK-10 renal) | TGI (U251 CNS) | TGI (UACC-257 melanoma) | TGI (UACC-62 melanoma) | TGI (UO-31 renal)
> 15.2 µM: TGI (MDA-MB-435)
> 16.1 µM: TGI (RXF 393 renal)
> 16.3 µM: TGI (NCI-H522 lung)
